Reference: US10517889B2, “Modulators of SMAD7 expression” (Ionis Pharmaceuticals, Inc., priority 2017, dated 2019)
Strand notation (5' to 3'): a small letter for the sugar, then the base; units joined by * are phosphorothioate-linked, units joined directly phosphodiester-linked; [ ] holds rarer units or linkages, { } end groups; capitals alone tell only the bases. e = 2'-O-(2-methoxyethyl) (MOE); [5mC] = 5-methylcytosine; d = 2'-deoxy (DNA)

What was measured:
human SMAD7 mRNA [1] = assay: Antisense inhibition of human SMAD7 mRNA expression in Hep3B cells by 5-10-5 MOE gapmers, single concentration, electroporation, RT-PCR (Example 1, Study 1 and 2); format: cell-based; conditions: for % Inhibition of SMAD7 mRNA: electroporation with 15,000 nM antisense oligonucleotide (Study 2)
How it was run: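 Hep3B cells (20,000/well) electroporated with 5-10-5 MOE gapmer at 5,000 nM or 15,000 nM for approximately 24 h. SMAD7 mRNA quantified by real-time PCR with primer probe set RTS5062 and normalized to RIBOGREEN total RNA. Values are percent inhibition relative to untreated controls.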

human SMAD7 mRNA [2] = assay: Dose-dependent inhibition of human SMAD7 mRNA expression in Hep3B cells (Example 3, Study 1 and 2); format: cell-based; conditions: electroporation; for % inhibition of SMAD7 mRNA expression: approximately 16 hours; for IC50: Study 1 (312.5-20000 nM)
How it was run: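 Hep3B cells, 20,000 per well, electroporated with antisense oligonucleotide at 0.31, 1.25, 5.00 or 20.00 μM (first series) or 0.74, 2.22, 6.67 or 20.00 μM (second series). After ~16 h, SMAD7 mRNA measured by RT-qPCR (RTS5062), normalised to RIBOGREEN total RNA. Percent inhibition vs untreated cells; IC50 derived.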

[3] = 5-10-5 MOE gapmers targeting SEQ ID NO: 1 and 2
[4] = electroporation, 15,000 nM antisense oligonucleotide (Study 2), 5-10-5 MOE gapmers targeting SEQ ID NO: 1 and 2
[5] = 312.5 nM, Study 1, relative to untreated control cells
[6] = Study 2, electroporation with 15,000 nM antisense oligonucleotide, 5-10-5 MOE gapmers targeting SEQ ID NO: 1 and 2
[7] = electroporation, 5,000 nM, approximately 24 hours, relative to untreated control cells, gapmers targeting SEQ ID NO: 1 and 2
[8] = electroporation, 15,000 nM, approximately 24 hours, relative to untreated control cells, gapmers targeting SEQ ID NO: 1 and 2

| Substance | % Inhibition of SMAD7 mRNA (human SMAD7 mRNA [1]; [3]) [%] | % inhibition of SMAD7 mRNA expression (human SMAD7 mRNA [1]; [4]) [%] | % inhibition of SMAD7 mRNA expression (human SMAD7 mRNA [2]; [5]) [%] | % inhibition of SMAD7 mRNA expression (human SMAD7 mRNA [2]; 1250.0 nM, Study 1) [%] | % inhibition of SMAD7 mRNA expression (human SMAD7 mRNA [2]; 5000.0 nM, Study 1) [%] | % inhibition of SMAD7 mRNA expression (human SMAD7 mRNA [2]; 20000.0 nM, Study 1) [%] | IC50 (human SMAD7 mRNA [2]) [µM] | % inhibition of SMAD7 mRNA expression (human SMAD7 mRNA [1]; [6]) [%] | % Inhibition (human SMAD7 mRNA [1]; [6]) [%] | % inhibition of SMAD7 mRNA expression (human SMAD7 mRNA [1]; [7]) [%] | % inhibition of SMAD7 mRNA expression (human SMAD7 mRNA [1]; [8]) [%] |
| --- | --- | --- | --- | --- | --- | --- | --- | --- | --- | --- | --- |
| 771441 (e[5mC]*eG*eA*eG*eG*dG*d[5mC]*dG*dG*d[5mC]*dT*dG*d[5mC]*dG*d[5mC]*eA*eG*eG*e[5mC]*eT; antisense) [compound 771441] | 60 | 10 | 0 | 5 | 45 | 64 | 9 |  |  |  |  |
| 771671 (antisense eT*e[5mC]*eA*eG*eG*dA*dG*dT*d[5mC]*d[5mC]*dT*dT*dT*d[5mC]*dT*e[5mC]*eT*e[5mC]*eT*e[5mC]) [compound 771671] |  |  | 0 | 9 | 27 | 49 | > 20 | 69 |  |  |  |
| 771742 (antisense eA*eG*eA*e[5mC]*eA*dG*dA*dT*d[5mC]*dT*d[5mC]*dT*dG*dA*dA*eG*eT*e[5mC]*eA*eG) [compound 771742] |  |  | 0 | 0 | 0 | 23 | > 20 |  | 44 |  |  |
| 771902 (antisense eG*eG*eG*eT*eT*d[5mC]*dT*d[5mC]*d[5mC]*dA*dG*d[5mC]*d[5mC]*dG*d[5mC]*eT*e[5mC]*eA*eG*eA) [compound 771902] |  |  | 0 | 17 | 29 | 59 | 13 |  | 77 |  |  |
| 771715 (antisense eA*eG*eT*e[5mC]*eT*d[5mC]*d[5mC]*dG*dA*dG*dT*dT*dA*dT*d[5mC]*e[5mC]*e[5mC]*e[5mC]*eA*eT) [compound 771715] |  |  | 7 | 18 | 42 | 49 | 17 |  | 67 | 68 |  |
| 278478 (antisense eA*e[5mC]*eA*eT*eG*dA*d[5mC]*d[5mC]*dT*d[5mC]*d[5mC]*dG*d[5mC]*dA*d[5mC]*eA*e[5mC]*e[5mC]*eA*eT) [compound 278478] | 54 | 18 | 0 | 9 | 19 | 22 | > 20 |  |  |  |  |
| 771825 (antisense e[5mC]*eT*e[5mC]*eT*e[5mC]*dA*dT*dT*dT*d[5mC]*dT*dG*dG*dA*dA*e[5mC]*e[5mC]*e[5mC]*eA*e[5mC]) [compound 771825] |  | 76 | 15 | 29 | 17 | 66 | 15 |  |  |  |  |
| 771509 (antisense eG*eG*e[5mC]*e[5mC]*eT*dG*d[5mC]*dT*d[5mC]*dA*dG*d[5mC]*dT*d[5mC]*dA*e[5mC]*eG*e[5mC]*eT*e[5mC]) [compound 771509] |  |  | 0 | 0 | 13 | 47 | > 20 |  |  |  | 65 |
| 771461 (antisense eG*eT*eA*eG*eA*dG*d[5mC]*d[5mC]*dT*d[5mC]*d[5mC]*d[5mC]*d[5mC]*dA*d[5mC]*eT*e[5mC]*eT*e[5mC]*eG) [compound 771461] |  |  | 0 | 2 | 11 | 39 | > 20 |  | 37 |  |  |
| 771808 (antisense e[5mC]*e[5mC]*e[5mC]*e[5mC]*eA*dA*dA*dG*dT*d[5mC]*d[5mC]*dA*d[5mC]*dG*d[5mC]*eT*e[5mC]*eA*eT*eG) [compound 771808] | 54 | 32 | 10 | 0 | 23 | 66 | 16 |  |  |  |  |
| 771387 (antisense eA*eG*e[5mC]*eA*eT*d[5mC]*dT*dG*dG*dA*d[5mC]*dA*dG*dT*d[5mC]*eT*eG*e[5mC]*eT*eG) [compound 771387] | 59 | 6 | 8 | 13 | 28 | 70 | 10 |  |  |  |  |
| 771793 (antisense eA*eA*eG*eT*e[5mC]*d[5mC]*d[5mC]*dT*dA*dA*d[5mC]*dG*dA*d[5mC]*d[5mC]*eA*eG*eG*e[5mC]*e[5mC]) [compound 771793] |  | 58 | 16 | 33 | 38 | 57 | 12 |  |  |  |  |
| 771788 (antisense e[5mC]*e[5mC]*eA*eA*e[5mC]*dT*d[5mC]*dT*dG*dA*dA*d[5mC]*dG*dG*dA*eA*eA*eG*eA*eA) [compound 771788] |  |  | 1 | 0 | 0 | 0 | > 20 |  | 30 |  |  |
| 483663 (antisense e[5mC]*eA*eG*e[5mC]*e[5mC]*dT*d[5mC]*dT*dT*dG*dA*d[5mC]*dT*dT*d[5mC]*e[5mC]*eG*eA*eG*eG) [compound 483663] | 35 | 41 | 0 | 0 | 14 | 27 | > 20 |  | 56 | 47 | 49 |
| 771386 (antisense e[5mC]*eT*eG*eG*eA*d[5mC]*dA*dG*dT*d[5mC]*dT*dG*d[5mC]*dT*dG*eT*eG*eG*eA*eT) [compound 771386] |  |  | 9 | 3 | 25 | 60 | 19 |  | 57 |  |  |
| 771479 (antisense eG*eG*eG*eA*eA*d[5mC]*dA*d[5mC]*d[5mC]*dT*dT*dG*dT*dG*dT*eA*e[5mC]*e[5mC]*eA*eA) [compound 771479] |  |  | 0 | 8 | 49 | 74 | 7 | 58 |  |  |  |
| 771570 (antisense eT*eG*eG*eG*eA*d[5mC]*dT*dG*d[5mC]*dA*dA*dA*d[5mC]*d[5mC]*dT*e[5mC]*eT*e[5mC]*eT*eG) [compound 771570] |  | 60 | 0 | 0 | 43 | 48 | > 20 |  |  |  |  |
